# Test results reported in article PMC11123841, “Discovery and Synthesis of Hydroxy-L-Proline Blockers of the Neutral Amino Acid Transporters SLC1A4 (ASCT1) and SLC1A5 (ASCT2)” (Molecules, 2024).
# Entries after “also recorded” stand apart in the source; their conditions may differ.
# Molecular target: T1, SLC7A10+SLC3A2 (asc-1/4f2) (Homo sapiens, UniProt Q9NS82)
# T1 construct: expressed in transfected cells; host or cells: Xenopus laevis oocytes (cRNA co-injection)
# T1 sequence (Q9NS82 1-523): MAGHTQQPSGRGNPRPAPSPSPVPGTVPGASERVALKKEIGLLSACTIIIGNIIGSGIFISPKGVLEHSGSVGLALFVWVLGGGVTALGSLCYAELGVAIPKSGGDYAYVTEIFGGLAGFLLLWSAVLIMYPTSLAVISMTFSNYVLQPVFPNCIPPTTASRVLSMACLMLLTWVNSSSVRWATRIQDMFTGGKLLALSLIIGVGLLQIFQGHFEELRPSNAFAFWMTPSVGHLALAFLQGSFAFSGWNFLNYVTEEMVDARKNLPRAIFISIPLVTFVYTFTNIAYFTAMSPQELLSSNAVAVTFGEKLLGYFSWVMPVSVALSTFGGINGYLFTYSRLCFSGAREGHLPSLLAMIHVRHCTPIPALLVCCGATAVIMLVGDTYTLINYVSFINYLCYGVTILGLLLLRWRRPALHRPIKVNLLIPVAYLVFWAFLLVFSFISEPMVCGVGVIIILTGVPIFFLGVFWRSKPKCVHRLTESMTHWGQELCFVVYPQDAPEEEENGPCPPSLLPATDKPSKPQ
# T1 sequence (P08195 1-529 partner): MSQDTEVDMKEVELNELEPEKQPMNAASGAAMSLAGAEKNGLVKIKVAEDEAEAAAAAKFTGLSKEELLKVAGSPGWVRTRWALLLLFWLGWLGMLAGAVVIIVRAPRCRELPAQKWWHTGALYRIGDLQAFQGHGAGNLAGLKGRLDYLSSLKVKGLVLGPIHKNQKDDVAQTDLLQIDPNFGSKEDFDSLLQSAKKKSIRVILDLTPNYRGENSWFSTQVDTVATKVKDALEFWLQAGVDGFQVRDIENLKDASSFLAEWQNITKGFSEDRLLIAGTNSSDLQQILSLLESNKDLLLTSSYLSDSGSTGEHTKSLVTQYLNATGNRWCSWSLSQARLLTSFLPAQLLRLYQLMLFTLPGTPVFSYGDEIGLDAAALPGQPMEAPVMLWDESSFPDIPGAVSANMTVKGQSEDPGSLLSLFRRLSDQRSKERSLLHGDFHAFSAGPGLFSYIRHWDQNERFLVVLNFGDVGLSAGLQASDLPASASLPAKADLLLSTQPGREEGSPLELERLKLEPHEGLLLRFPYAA
# Assay: [3H]D-serine uptake in oocytes
# Format: cell-based
# Conditions: 10 µM BPOHP
# Experimental: BPOHP activity was evaluated against the glutamate transporters paralogs within the SLC1A gene family (SLC1A 1–3) as well as at neutral amino acid transporters that share common ligand substrates with the SLC1 family including SLC38A1,2, and 4 (ATA1, ATA2, ATA3) and heteromeric transporters SLC7A10+SLC3A2 (asc-1/4f2). […] Finally, radiolabeled [^3H]D-serine uptake was used to assess the electroneutral SLC7A10+SLC3A2 transporter, in which 10 µM BPOHP had no effect (Figure S3).
# Uptake was halted by washing 3 times with 4 °C ND96 buffer. Oocytes were then lysed in 0.1% Triton X-100, and radioactivity was counted via liquid scintillation. Dose response curves were generated by fitting fractional inhibition (I) to the expression I = Imax × [inhibitor]/([inhibitor] + IC50).
# Figure SM-3A. Representative traces showing 100µM L-Ala currents and co-application of 3µM BPOHP (black bar) with no effect on SLC38A neutral amino acid transporters SLC38A1(ATA1), SLC38A2 (ATA2), and SLC38A4 (ATA3). SM-3B. [3H]D-serine uptake (100nM) in SLC1A4 is blocked by BPOHP (10µM), however, [ 3H]D-serine uptake by co -expressed SLC7A10+SLC3A2 (asc1+4F2) nor SLC3A2 (4f2) expressed (injected) alone was blocked by application of 10µM BPOHP.
# Figure SM-4. Tosic acid approach to compound 12c. (i) Tosylic acid 0.1M in THF 60◦C. (ii) Phenol and NaH in DCM, 40◦C under argon balloon (iii) 10% Pd/C (10% w/eq.), H2, MeOH, H2O, […]
structure (smiles),measurement,value
O=C(O)[C@H]1NC[C@@H](OCc2ccc(-c3ccccc3)cc2)[C@@H]1O [14e],effect on [3H]D-serine uptake,no effect; also recorded: no inhibition was detected
